Test results reported in US10973810B2, “Methods for the treatment of neurological disorders” (Yumanity Therapeutics, Inc., priority 2017, dated 2021).

Legend:
yeast OLE1 = biological target: T1, yeast OLE1 (Saccharomyces cerevisiae, UniProt P21147, L450T/T449L); assay: Growth of yeast surviving solely on yeast OLE1; assay type: cell-based; conditions: 24 h
T1 construct: expressed in transfected cells; host or cells: S. cerevisiae ole1Δ strain (W303 pdr1Δ pdr3Δ background), plasmid pRS316 with TDH3 promoter and CYC1 terminator
Text: (§1) To generate yeast strains expressing SCD1 or SCD5 as the sole desaturase, the human SCD1 and SCD5 genes were cloned from cDNAs (Harvard PlasmID database Clone ID HsCD00340237 for SCD1 and HsCD00342695 for SCD5) into yeast plasmid pRS316 (ATCC 77145) between the yeast TDH3 promoter and the CYC1 terminator. The coding sequence of yeast OLE1 was also cloned into this plasmid). These clones were then transformed into the ole1d strain and plated on CSM-Ura media (CSM lacking uracil) with 2% glucose (w/v) and independent colonies were isolated and amplified.
(§2) For experiments using a plasmid-borne copy of Ole1, SCD1, or SCD5 (FIGS. 3B, 6, and 7), media lacking uracil (SX-Ura, where X is glucose, raffinose, or galactose), was used for all steps of the compound profiling protocol to ensure its maintenance throughout the assay.
(§3) After yeast delivery, assay plates were incubated under humidified conditions at 30° C. for 24 to 40 h. ApoE4 rescue experiments were stopped at 24 h, aSyn experiments at 40 h, Ole1 at 24 h, and SCD1/SCD5 at 40 h. The growth of yeast was monitored by reading the OD600 of each well using a microplate reader (Perkin Elmer EnVision™). For model rescue experiments, raw data were processed by background subtracting and calculating a fold-change relative to DMSO control [(EXP-0.035)/(DMSO-0.035)—where 0.035 is the OD600 contributed by an empty well containing 30 μL of media alone]. For growth inhibition of wild-type cells, raw data were processed by background subtracting and converting values to a percent of the nontreated condition for that strain [(EXP-0.035)/(DMSO-0.035)×100%].

[1] = tested on: alpha-synuclein transfected U2OS cells; assay: U2OS ATP assay of alpha-synuclein toxicity; assay type: cell-based, human; conditions: 72 h after transfection/treatment; titration; normalized to DMSO control
Method: U2OS cells were transfected with empty vector control (“pcDNA”) or alpha-synuclein (“α-synuclein/pcDNA”) in combination with a scrambled (SCR) siRNA control (50 nM), or human SCD5 siRNA (10, 25 or 50 nM). (FIG. 12A) Cellular heath was assessed 48 h after transfection by evaluating ATP levels. Cell toxicity in the alpha-synuclein plus SCR siRNA was set as the floor of the assay, and then all samples were normalized to pcDNA with […] (set to 100%) to calculate the normalized percent rescue. Bars depict mean values of triplicate determinations; error bars indicate standard deviation. A two-tailed t-test was used to compare control conditions with SCR or SCD5 siRNA (*p 0.05). Cells transfected with alpha-synuclein were analyzed together by ANOVA with Dunnett's post-test to correct for multiple comparisons (**p 0.01, ****p 0.0001). Significance is shown for the comparison of each alpha-synuclein plus SCD5 siRNA concentration compared against the alpha-synuclein plus SCR control. (FIG. 12B) Quantitative RT-PCR was utilized to confirm the levels of SCD5 mRNA. […]
Powders of reference SCD inhibitors (CAY10566, A939572 and MF-438) were resuspended and serial diluted in DMSO. […] ATP content was then measured using the CellTiter-Glo® kit (Promega) with luminescence signals measured on an EnVision multimode plate reader (Perkin Elmer).

human SCD5 = biological target: T2, human SCD5 (Homo sapiens, UniProt Q86SK9); assay: Growth of humanized yeast surviving solely on human SCD5; assay type: cell-based; conditions: growth inhibition
T2 construct: host or cells: S. cerevisiae ole1Δ strain (W303 pdr1Δ pdr3Δ background), plasmid pRS316 with TDH3 promoter and CYC1 terminator
T2 sequence (Q86SK9 1-330): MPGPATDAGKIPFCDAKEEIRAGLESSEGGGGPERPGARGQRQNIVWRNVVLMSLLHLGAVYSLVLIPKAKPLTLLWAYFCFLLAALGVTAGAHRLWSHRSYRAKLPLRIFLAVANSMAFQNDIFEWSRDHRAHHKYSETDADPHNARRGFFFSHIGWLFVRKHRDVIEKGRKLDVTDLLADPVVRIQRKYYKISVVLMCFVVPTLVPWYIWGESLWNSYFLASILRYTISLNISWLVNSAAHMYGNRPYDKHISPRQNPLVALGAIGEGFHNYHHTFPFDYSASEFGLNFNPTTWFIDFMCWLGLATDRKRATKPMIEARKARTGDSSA
Text: as §1, §2, §3

T1 sequence (P21147 whole entry T449L/L450T): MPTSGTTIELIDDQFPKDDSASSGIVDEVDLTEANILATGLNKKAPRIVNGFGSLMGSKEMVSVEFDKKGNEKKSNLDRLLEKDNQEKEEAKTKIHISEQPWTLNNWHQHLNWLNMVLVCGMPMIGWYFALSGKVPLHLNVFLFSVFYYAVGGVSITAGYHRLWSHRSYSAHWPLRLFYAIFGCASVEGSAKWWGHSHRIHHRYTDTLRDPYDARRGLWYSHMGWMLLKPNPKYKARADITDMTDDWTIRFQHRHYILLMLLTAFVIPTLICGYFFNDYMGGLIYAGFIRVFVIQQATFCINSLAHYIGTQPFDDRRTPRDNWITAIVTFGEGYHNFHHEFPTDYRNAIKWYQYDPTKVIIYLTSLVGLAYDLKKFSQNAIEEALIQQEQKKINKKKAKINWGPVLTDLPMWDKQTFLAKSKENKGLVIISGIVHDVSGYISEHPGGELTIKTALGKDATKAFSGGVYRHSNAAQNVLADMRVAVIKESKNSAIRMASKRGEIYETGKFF

In the case of `Cc1nnc(-c2ccc(N3CCC(Oc4cc(F)ccc4Cl)CC3)nn2)o1` [CAY10566], the “growth of yeast strain expressing Ole1 (percent of DMSO-treated condition)” value (yeast OLE1) is reported as “resistant”, the “cellular ATP levels in alpha-synuclein transfected U2OS cells” value [1] is reported as “significantly reversed alpha-synuclein-dependent decreases in ATP levels” and the “half-maximal inhibitory concentration (IC50), SCD5 humanized strain” value (human SCD5) is reported as “low nanomolar”.
